# Measured values taken from US4419123A, “Herbicidal 4-trifluoromethyl-3'-carbon-substituted-4'-substituted diphenyl ethers” (Rohm and Haas Company, priority 1981, dated 1983).
# Legend:
# [1] = Postemergence herbicidal activity (% control) against monocot weeds; type: in vivo; conditions: post-emergence, 336 h, average, about two weeks after application, read-out: Herbicidal activity (% control), postemergence, monocots; for activity at 4483.4 g/ha: 4 lb./A.; for activity at 11208.5 g/ha: 10 lb./A.; for activity at 2241.7 g/ha: 2 lb./A.
# Text: (§1) barnyardgrass (Echinochloa crusgalli) crabgrass (Digitaria spp.) nutsedge (Cyperus esculentus)
# (§2) At 2 and 4 pounds per acre:
# (§3) **Bermudagrass (Cynodon dactylon)
# (§4) *downy brome (Bromus tectorum) foxtail (Setaria faberii)
# (§5) Johnsongrass (Sorghum halepense) […]
# (§6) quackgrass (Agropyron repens)
# (§7) *ryegrass (Lolium perenne)
# (§8) *wild oats (Avena factua)
# (§9) *yellow millet (Panicum miliaceum)
# (§10) The following test procedure is employed.
# [2] = Preemergence herbicidal activity (% control) against monocot weeds; type: in vivo; conditions: pre-emergence, 336 h, average, about two weeks after application, read-out: Herbicidal activity (% control), preemergence, monocots; for activity at 4483.4 g/ha: 4 lb./A.; for activity at 11208.5 g/ha: 10 lb./A.; for activity at 2241.7 g/ha: 2 lb./A.
# Text: as §1, §2, §3, §4, §5, §6, §7, §8, §9, §10
# [3] = Postemergence herbicidal activity (% control) against dicot weeds; conditions: post-emergence, 336 h; for activity at 11208.5 g/ha: read-out: Herbicidal activity (% control), postemergence, dicots, 10 lb./A., average, about two weeks after application
# [4] = Preemergence herbicidal activity (% control) against dicot weeds; conditions: pre-emergence, 336 h; for activity at 11208.5 g/ha: read-out: Herbicidal activity (% control), preemergence, dicots, 10 lb./A., average, about two weeks after application
# [5] = read-out: Herbicidal activity (% control), postemergence, dicots, 4 lb./A., average, about two weeks after application
# [6] = read-out: Herbicidal activity (% control), preemergence, dicots, 4 lb./A., average, about two weeks after application
# [7] = read-out: Herbicidal activity (% control), postemergence, dicots, 2 lb./A., average, about two weeks after application
# [8] = read-out: Herbicidal activity (% control), preemergence, dicots, 2 lb./A., average, about two weeks after application
# [9] = read-out: Herbicidal activity (% control), postemergence, dicots
# [10] = read-out: Herbicidal activity (% control), preemergence, dicots
Compound,activity at 4483.4 g/ha [1],activity at 11208.5 g/ha [1],activity at 4483.4 g/ha [2],activity at 11208.5 g/ha [2],"activity at 4483.4 g/ha [3, 5]","activity at 4483.4 g/ha [4, 6]",activity at 11208.5 g/ha [4],activity at 2241.7 g/ha [1],activity at 2241.7 g/ha [2],"activity at 2241.7 g/ha [3, 7]","activity at 2241.7 g/ha [4, 8]",activity at 11208.5 g/ha [3],"activity at 2241.7 g/ha [3, 9]","activity at 4483.4 g/ha [3, 9]","activity at 2241.7 g/ha [4, 10]","activity at 4483.4 g/ha [4, 10]"
COc1cc(Oc2ccc(C(F)(F)F)cc2Cl)ccc1[N+](=O)[O-] [Example 2],99%,100%,97%,97%,100%,80%,100%,–,–,–,–,–,–,–,–,–
"O=C(CCl)Nc1cc(Oc2ccc(C(F)(F)F)cc2Cl)ccc1[N+](=O)[O-] [Example 35, 2-chloro-α,α,α-trifluoro-p-tolyl-3-chloroacetamido-4-nitrophenyl ether]",45%,–,40%,–,98%,–,–,63%,60%,80%,72%,–,–,–,–,–
CS(=O)(=O)CCOc1cc(Oc2ccc(C(F)(F)F)cc2Cl)ccc1[N+](=O)[O-] [Example 42],38%,–,62%,–,98%,80%,–,63%,83%,88%,60%,–,–,–,–,–
Cc1cc(Oc2ccc(C(F)(F)F)cc2C#N)ccc1[N+](=O)[O-] [Example 9],97%,100%,90%,99%,81%,66%,92%,82%,81%,75%,67%,–,–,–,–,–
C#CCOc1cc(Oc2ccc(C(F)(F)F)cc2Cl)ccc1[N+](=O)[O-] [Example 13],77%,–,76%,–,98%,90%,–,100%,78%,–,72%,–,–,–,–,–
C#CCCOc1cc(Oc2ccc(C(F)(F)F)cc2Cl)ccc1[N+](=O)[O-] [Example 29],79%,–,74%,–,100%,73%,–,97%,66%,100%,84%,–,–,–,–,–
CCOc1cc(Oc2ccc(C(F)(F)F)cc2)ccc1[N+](=O)[O-] [Example 1],57%,82%,76%,42%,58%,45%,35%,–,–,–,–,100%,–,–,–,–
O=[N+]([O-])c1ccc(Oc2ccc(C(F)(F)F)cc2Cl)cc1NCCO [Example 22],60%,–,72%,–,99%,98%,–,70%,63%,100%,77%,–,–,–,–,–
CCCOc1cc(Oc2ccc(C(F)(F)F)cc2C#N)ccc1[N+](=O)[O-] [Example 8],48%,85%,61%,81%,80%,57%,82%,35%,52%,66%,46%,100%,–,–,–,–
"CC(Oc1cc(Oc2ccc(C(F)(F)F)cc2Cl)ccc1[N+](=O)[O-])C(N)=O (stereo not drawn) [Example 51, 2-chloro-α,α,α-trifluoro-p-tolyl-3-(1-carbamoylethoxy)-4-nitrophenyl ether]",75%,–,79%,–,100%,100%,–,86%,96%,98%,100%,–,–,–,–,–
CC(=O)CCOc1cc(Oc2ccc(C(F)(F)F)cc2Cl)ccc1[N+](=O)[O-] [Example 31],61%,–,74%,–,100%,99%,–,68%,68%,100%,69%,–,–,–,–,–
CCSC(=O)Nc1cc(Oc2ccc(C(F)(F)F)cc2Cl)ccc1[N+](=O)[O-] [Example 45],17%,–,13%,–,88%,58%,–,53%,68%,78%,77%,–,–,–,–,–
CC#CCCOc1cc(Oc2ccc(C(F)(F)F)cc2Cl)ccc1[N+](=O)[O-] [Example 14],61%,–,64%,–,94%,78%,–,91%,30%,100%,22%,–,–,–,–,–
"O=[N+]([O-])c1ccc(Oc2ccc(C(F)(F)F)cc2Cl)cc1O [Example 10, 2-Chloro-α,α,α-trifluoro-p-tolyl-3-hydroxy-4-nitrophenylether]",67%,–,70%,–,98%,100%,–,17%,66%,85%,70%,–,–,–,–,–
"CCN(C(=O)NC)c1cc(Oc2ccc(C(F)(F)F)cc2Cl)ccc1[N+](=O)[O-] [Example 55, 2-Chloro-α,α,α-trifluoro-p-tolyl-3-(3-methyl-1-ethylureido)-4-nitrophenyl ether]",69%,–,91%,–,95%,73%,–,31%,–,96%,–,–,–,–,–,–
CCCOc1cc(Oc2ccc(C(F)(F)F)cc2Cl)ccc1[N+](=O)[O-] [Example 5],99%,100%,84%,97%,100%,78%,100%,–,–,–,–,–,–,–,–,–
O=C(O)COc1cc(Oc2ccc(C(F)(F)F)cc2Cl)ccc1[N+](=O)[O-] [Example 23],82%,–,90%,–,100%,64%,–,71%,55%,100%,87%,–,–,–,–,–
C=CCOc1cc(Oc2ccc(C(F)(F)F)cc2Cl)ccc1[N+](=O)[O-] [Example 12],77%,–,86%,–,100%,96%,–,99%,72%,100%,93%,–,–,–,–,–
"CCOc1cc(Oc2ccc(C(F)(F)F)cc2C#N)ccc1[N+](=O)[O-] [Example 7, 2-Cyano-α,α,α-trifluoro-p-tolyl-3-ethoxy-4-nitrophenyl ether]",75%,100%,65%,61%,77%,57%,60%,82%,65%,80%,54%,–,–,–,–,–
CCCCOc1cc(Oc2ccc(C(F)(F)F)cc2Cl)ccc1[N+](=O)[O-] [Example 6],91%,97%,77%,65%,94%,55%,70%,–,–,–,–,100%,–,–,–,–
"CC(Oc1cc(Oc2ccc(C(F)(F)F)cc2Cl)ccc1[N+](=O)[O-])C(=O)O (stereo not drawn) [Example 25, 2-Chloro-α,α,α-trifluoro-p-tolyl-3-(1-carboxyethoxy)-4-nitrophenyl ether]",97%,–,87%,–,100%,88%,–,88%,40%,100%,93%,–,–,–,–,–
CNC(=O)Oc1cc(Oc2ccc(C(F)(F)F)cc2Cl)ccc1[N+](=O)[O-] [Example 33],32%,–,53%,–,–,–,–,65%,79%,–,–,–,100%,98%,74%,99%
